From patent US7579469B2, “Glucocorticoid mimetics, methods of making them, pharmaceutical compositions, and uses thereof” (Boehringer Ingelheim Pharmaceuticals, Inc., priority 2003, dated 2009)

What follows are compounds tested against T1, human glucocorticoid receptor (GR) complex (Homo sapiens, UniProt P04150) (assay: Glucocorticoid receptor competitive binding assay (fluorescence polarization)). Conditions: competition with TAMRA-labeled dexamethasone.
T1 construct: made in house; host or cells: insect expression system (baculovirus lysate)
T1 sequence (P04150 1-777): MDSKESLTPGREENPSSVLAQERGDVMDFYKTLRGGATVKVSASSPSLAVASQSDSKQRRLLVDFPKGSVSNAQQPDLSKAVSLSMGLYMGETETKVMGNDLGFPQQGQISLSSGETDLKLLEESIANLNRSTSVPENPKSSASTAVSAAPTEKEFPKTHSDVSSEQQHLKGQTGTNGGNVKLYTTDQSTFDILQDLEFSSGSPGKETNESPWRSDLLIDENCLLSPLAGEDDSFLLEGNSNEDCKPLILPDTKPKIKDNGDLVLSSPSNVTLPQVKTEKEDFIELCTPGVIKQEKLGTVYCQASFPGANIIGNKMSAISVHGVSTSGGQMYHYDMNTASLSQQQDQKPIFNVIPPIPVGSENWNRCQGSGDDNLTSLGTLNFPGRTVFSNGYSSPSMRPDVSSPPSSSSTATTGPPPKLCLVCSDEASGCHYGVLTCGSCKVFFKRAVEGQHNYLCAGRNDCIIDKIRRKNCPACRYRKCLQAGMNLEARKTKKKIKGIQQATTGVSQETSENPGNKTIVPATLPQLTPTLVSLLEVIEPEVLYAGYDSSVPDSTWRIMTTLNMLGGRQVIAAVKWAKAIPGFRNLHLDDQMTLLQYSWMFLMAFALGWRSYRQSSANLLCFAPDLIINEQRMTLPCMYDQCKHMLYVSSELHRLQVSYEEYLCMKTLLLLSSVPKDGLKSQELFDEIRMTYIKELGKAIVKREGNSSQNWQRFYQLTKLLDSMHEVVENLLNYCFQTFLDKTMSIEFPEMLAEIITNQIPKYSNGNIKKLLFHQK
How it was run: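 Fluorescence polarization competition against TAMRA-labelled dexamethasone (50 μL of 15 nM added) for human GR complex from baculovirus insect-cell lysate, diluted 1:170, in TES/KCl/molybdate buffer, pH 7.4.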

SMILES | activity in the GR binding assay
Cc1cc2c(c(C(C)(C)CC(O)(Cn3ccc(=O)c4ccccc43)C(F)(F)F)c1)OCC2 (stereo not drawn) [1-[4-(5-Methyl-2,3-dihydrobenzofuran-7-yl)-2-hydroxy-4-methyl-2-trifluoromethylpentyl]-1H-quinolin-4-one] | potent activity
Cc1cc(C)cc(C(C)(C)CC(O)(Cn2ccc(=O)c3ccccc32)C(F)(F)F)c1 (stereo not drawn) | potent activity
Cc1cc(C)c(O)c(C(C)(C)CC(O)(Cn2ccc(=O)c3ccccc32)C(F)(F)F)c1 (stereo not drawn) [1-[2-Hydroxy-4-(2-hydroxy-3,5-dimethylphenyl)-4-methyl-2-trifluoromethylpentyl]-1H-quinolin-4-one] | potent activity
CC(C)(CC(O)(Cn1ccc(=O)c2ncccc21)C(F)(F)F)c1cccc2c1OCC2 (stereo not drawn) | potent activity
CC(C)(CC(O)(Cn1ccc(=O)c2ncccc21)C(F)(F)F)c1cc(S(C)(=O)=O)cc2c1OCC2 (stereo not drawn) [1-[2-Hydroxy-4-(5-methanesulfonyl-2,3-dihydrobenzofuran-7-yl)-4-methyl-2-trifluoromethylpentyl]-1H-[1,5]naphthyridin-4-one] | potent activity
Cc1ccc(F)cc1C(C)(C)CC(O)(Cn1cc(C)c(=O)c(C)c1)C(F)(F)F (stereo not drawn) [1-[4-(5-Fluoro-2-methylphenyl)-2-hydroxy-4-methyl-2-trifluoromethylpentyl]-3,5-dimethyl-1H-pyridin-4-one] | potent activity
CC(C)(CC(O)(Cn1ccc(=O)c2ccccc21)C(F)(F)F)c1ccc(F)c(C2OCCCO2)c1 (stereo not drawn) | potent activity
CC(C)(CC(O)(Cn1ccc(=O)c2ccccc21)C(F)(F)F)c1ccccc1 (stereo not drawn) [1-[4-Phenyl-2-hydroxy-4-methyl-2-trifluoromethylpentyl]-1H-quinolin-4-one] | potent activity
CC(C)(CC(O)(Cn1ccc(=O)c2ccccc21)C(F)(F)F)c1cccc(-c2cccnc2)c1 (stereo not drawn) | potent activity
CC(=O)c1cccc(C(C)(C)CC(O)(Cn2ccc(=O)c3ccccc32)C(F)(F)F)c1 (stereo not drawn) [1-[4-(3-Acetylphenyl)-2-hydroxy-4-methyl-2-trifluoromethylpentyl]-1H-quinolin-4-one] | potent activity
Cc1ccc(C(C)(C)CC(O)(Cn2ccc(=O)c3ccccc32)C(F)(F)F)cc1C (stereo not drawn) | potent activity
COc1c(C)cc(C)cc1C(C)(C)CC(O)(Cn1ccc(=O)c2ccccc21)C(F)(F)F (stereo not drawn) | potent activity
CC(=NO)c1cccc(C(C)(C)CC(O)(Cn2ccc(=O)c3ccccc32)C(F)(F)F)c1 (stereo not drawn) [1-(2-Hydroxy-4-{3-[1-(hydroxyimino)ethyl]phenyl}4-methyl-2-trifluoromethylpentyl)-1H-quinolin-4-one] | potent activity
CC(C)Oc1cccc(C(C)(C)CC(O)(Cn2ccc(=O)c3ccccc32)C(F)(F)F)c1 (stereo not drawn) | potent activity
CC(C)(CC(O)(Cn1ccc(=O)c2ccccc21)C(F)(F)F)c1cccc(C2OCCCO2)c1 (stereo not drawn) [1-[4-(3-[1,3]Dioxan-2-ylphenyl)-2-hydroxy-4-methyl-2-trifluoromethylpentyl]-1H-quinolin-4-one] | potent activity
CC(C)(CC(O)(Cn1ccc(=O)c2ccccc21)C(F)(F)F)c1cccc(CN2CCOCC2)c1 (stereo not drawn) | potent activity

Other lines, results leading:

activity in the GR binding assay | SMILES
potent activity | COc1ccc(CN2CCOCC2)cc1C(C)(C)CC(O)(Cn1ccc(=O)c2ccccc21)C(F)(F)F (stereo not drawn) [1-[2-Hydroxy-4-(2-methoxy-5-morpholin-4-ylmethylphenyl)-4-methyl-2-trifluoromethylpentyl]-1H-quinolin-4-one]
potent activity | CC(C)(CC(O)(Cn1ccc(=O)c2cc(F)ccc21)C(F)(F)F)c1cc(F)ccc1O (stereo not drawn) [6-Fluoro-1-[4-(5-fluoro-2-hydroxyphenyl)-2-hydroxy-4-methyl-2-trifluoromethylpentyl]-1H-quinolin-4-one]
potent activity | COc1ccc(F)cc1C(C)(C)CC(O)(Cn1[nH]c(=O)c2ccccc21)C(F)(F)F (stereo not drawn) [1-[4-(5-Fluoro-2-methoxyphenyl)-2-hydroxy-4-methyl-2-trifluoromethylpentyl]-1,2-dihydroindazol-3-one]
potent activity | COc1ccc(F)cc1C(C)(C)CC(O)(CN1CCN(c2ncc(C(F)(F)F)cc2Cl)CC1)C(F)(F)F (stereo not drawn) [2-[4-(3-Chloro-5-trifluoromethylpyridin-2-yl)piperazin-1-ylmethyl]-1,1,1-trifluoro-4-(5-fluoro-2-methoxyphenyl)-4-methylpentan-2-ol]
potent activity | CC(C)(CC(O)(Cn1ccc(=O)c2cc(Cl)ccc21)C(F)(F)F)c1cc(F)ccc1O (stereo not drawn) [6-Chloro-1-[4-(5-fluoro-2-hydroxyphenyl)-2-hydroxy-4-methyl-2-trifluoromethylpentyl]-1H-quinolin-4-one]
potent activity | CC(C)(CC(O)(Cn1ccc(=O)c2ccccc21)C(F)(F)F)c1cc(F)ccc1OCc1ccccc1 (stereo not drawn)
potent activity | COc1ccc(F)cc1C(C)(C)CC(O)(CN1CCc2ccccc21)C(F)(F)F (stereo not drawn) [2-(2,3-Dihydroindol-1-ylmethyl)-1,1,1-trifluoro-4-(5-fluoro-2-methoxyphenyl)-4-methylpentan-2-ol]
potent activity | CC(C)(CC(O)(Cn1ccc(=O)c2ccccc21)C(F)(F)F)c1cccc(F)c1 (stereo not drawn) [1-[4-(3-Fluorophenyl)-2-hydroxy-4-methyl-2-trifluoromethylpentyl]-1H-quinolin-4-one]
potent activity | COc1ccc(F)cc1C(C)(C)CC(O)(Cn1ccc(=O)c2cc(F)ccc21)C(F)(F)F (stereo not drawn) [6-Fluoro-1-[4-(5-fluoro-2-methoxyphenyl)-2-hydroxy-4-methyl-2-trifluoromethylpentyl]-1H-quinolin-4-one]
potent activity | COc1ccc(F)cc1C(C)(C)CC(O)(CN1CCN(C(C)=O)c2ccccc21)C(F)(F)F (stereo not drawn) [1-{4-[4-(5-Fluoro-2-methoxyphenyl)-2-hydroxy-4-methyl-2-trifluoromethylpentyl]-3,4-dihydro-2H-quinoxalin-1-yl}ethanone]
potent activity | CC(C)(CC(O)(Cn1cnc(=O)c2ccccc21)C(F)(F)F)c1cc(F)ccc1O (stereo not drawn)
potent activity | COc1ccc(-c2cncnc2)cc1C(C)(C)CC(O)(Cn1ccc(=O)c2ccccc21)C(F)(F)F (stereo not drawn)
potent activity | CC(=O)COc1ccc(F)cc1C(C)(C)CC(O)(Cn1ccc(=O)c2ccccc21)C(F)(F)F (stereo not drawn) [1-{4-[5-Fluoro-2-(2-oxopropoxy)phenyl]-2-hydroxy-4-methyl-2-trifluoromethylpentyl}-1H-quinolin-4-one]
potent activity | COc1ccc(C)cc1C(C)(C)CC(O)(Cn1ccc(=O)c2ccccc21)C(F)(F)F (stereo not drawn) [1-[2-Hydroxy-4-(2-methoxy-5-methylphenyl)-4-methyl-2-trifluoromethylpentyl]-1H-quinolin-4-one]
potent activity | Cc1cn(CC(O)(CC(C)(C)c2cc(F)ccc2O)C(F)(F)F)c2ccccc2c1=O (stereo not drawn)

What follows are compounds tested on Osteocalcin Production from Osteoblast Cell Line MG-63 (assay: Inhibition of osteocalcin production from osteoblast cell line MG-63). Conditions: MG-63 cells, Vitamin D 10 nM, 48 hours, osteocalcin ELISA.
Assay type: cell-based, human
Procedure: Representative compounds of the invention have been tested and have shown activity as modulators of the glucocorticoid receptor function in one or more of the above assays. […] 7. Inhibition of Osteocalcin Production from Osteoblast Cell Line MG-63
Human osteosarcoma MG-63 cells (ATCC, Cat. No. CRL-1427) are plated on 96 well plates at 20,000 cells per well the day before use in 200 μL media of 99% D-MEM/F-12 (Gibco-Invitrogen, Cat. No. 11039-021), supplemented with 1% penicillin and streptomycin (Gibco-Invitrogen, Cat. No. 15140-122), 10 μg/mL Vitamin C (Sigma, Cat. No. A4544), and 1% charcoal filtered Fetal Bovine Serum (HyClone, Cat. No. SH30068.02). The next day, wells are replaced with fresh media. Cells are treated with Vitamin D (Sigma, Cat. No. D1530) to a final concentration of 10 nM, and with the test compounds in concentrations of 10^−6 M to 10^−9 M, in a total volume of 200 μL per well. Samples are done in duplicates. […] Positive control wells receive Vitamin D only, without compounds, and represent maximum (100%) amount of osteocalcin production. Plates are incubated at 37° C. incubator for 48 hours and supernatants are harvested at the end of incubation. Amounts of osteocalcin in the supernatants are determined by the Glype osteocalcin ELISA kit (Zymed, Cat. No. 99-0054) according to manufacture's protocol. Inhibition of osteocalcin by test compounds is expressed in percentage relative to positive controls. IC50 values of the test compounds are derived by non-lineal curve fitting.

SMILES | inhibit the vitamin D stimulated production of osteocalcin
CC(C)(CC(O)(Cn1ccc(=O)c2ccccc21)C(F)(F)F)c1cccc(-c2ccccc2)c1 (stereo not drawn) [1-(4-Biphenyl-3-yl-2-hydroxy-4-methyl-2-trifluoromethylpentyl)-1H-quinolin-4-one] | inhibit
CC(C)(CC(O)(Cn1ccc(=O)c2ncccc21)C(F)(F)F)c1cc(F)ccc1O (stereo not drawn) | inhibit
